Entries after “also recorded” stand apart in the source; their conditions may differ.
Experiments:
[1] = test system: mouse myoblast cell line (C2C12 cells); experiment: Thickness of myotubes differentiated from mouse myoblasts, muscle reduction induced by dexamethasone; format: cell-based
Procedure: First, differentiation of myotubes from mouse myoblasts was induced. A mouse myoblast cell line (C2C12 cells) was purchased from ATCC (Manassas, Va., USA) and used. The purchased cells were inoculated in 10% fetal bovine serum media (Gibco-BRL) and incubated in a 5% CO2 incubator at 37° C. When the confluency of the cells attached to the media became 80% or higher, the cells were transferred to 2% horse serum media (Gibco-BRL) to differentiate myoblasts into myotubes.
For two days (48 hours) from day 4 after differentiation into myotubes started to be induced, the media were treated with 50 μM dexamethasone (dexa; Sigma Aldrich, USA) to induce muscle reduction. […] As a non-treated control, cells treated with only dexamethasone and not treated with ethyl vanillin were used.
After completion of the incubation, the cells were washed twice with phosphate buffered saline (PBS), and then fixed by treatment with 100% methanol for 10 minutes. […]
The stained myotubes were photographed using a fluorescence microscope (IX 71, Olympus) at a magnification of 10×, and then analyzed using image J software (USA). Six sections were randomly selected from each well and micrographed, and the thickness of at least 100 myotubes from each well was analyzed (three repetitions/group).

[2] = test system: animal model with high-fat-diet-induced muscle loss; experiment: Fiber diameter of tibialis anterior muscle tissue (H&E staining); format: in vivo, C57BL/6N mice; conditions: 0.2% ethyl vanillin in high-fat diet, 10 weeks
Procedure: A normal diet group (Chow) was fed commercial rodent chow. Ethyl vanillin was purchased from Sigma-Aldrich. [table] Muscle tissues of mice were extracted, fixed in 10% formalin, and then stained with hematoxylin and eosin (H&E) after requesting Korea CFC (Gyeonggi-do, Korea) to do so, and observed using an optical microscope (IX71, Olympus, JPN) and photographed using a digital camera (DP71, Olympus, JPN). The statistical analysis of all data was performed using the Statistical Package for the Social Sciences (SPSS version 21.0, IBM, Armonk, N.Y., USA), and analysis values were expressed as mean±SEM, and a significant difference between groups was verified by ANOVA.

[3] = test system: animal model with high-fat-diet-induced muscle loss; experiment: Four limb hanging test in mice fed a high-fat diet; format: in vivo, C57BL/6N mice; conditions: 0.2% ethyl vanillin in high-fat diet, week 10
Procedure: A normal diet group (Chow) was fed commercial rodent chow. Ethyl vanillin was purchased from Sigma-Aldrich. [table] To measure the limb muscle strength of mice, the time that the mice hung upside down using their four feet was measured at week 10 of breeding. The time (seconds) that the mice hung upside down in a cage equipped with a wire mesh cover (diameter<0.5 cm) (20×30×50 cm, Jeung-Do Bio & Plant Co., Ltd, Korea) was measured a total of three times, and a rest period of 30 minutes or longer was given between measurements. Experimental results were obtained by multiplying hanging time (sec) by body weight (kg). The statistical analysis of all data was performed using the Statistical Package for the Social Sciences (SPSS version 21.0, IBM, Armonk, N.Y., USA), and analysis values were expressed as mean±SEM, and a significant difference between groups was verified by ANOVA.

p-p70S6K1 protein = experiment: Protein expression level by Western blotting in myotubes; format: cell-based, mouse; conditions: ethyl vanillin with dexamethasone vs dexamethasone control
Procedure: (§1) After completing the incubation of all experimental groups and the control, the media were removed and a lysis buffer was added to each well to lyse the cells. As the lysis buffer, a 100 mM Tris-HCl buffer solution (pH 7.4) containing 5 mM EDTA, 50 mM sodium pyrophosphate, 50 mM NaF, 100 mM orthovanadate, 1% Triton X-100, 1 mM phenylmethanesulfonyl fluoride (PMSF), […] of aprotinin, 1 μg/mL of pepstatin A, and 1 μg/mL of leupeptin was used. After lysing the cells, the lysates were obtained, and then centrifuged at 1,300×g and 4° C. for 20 minutes, and then the middle layer was taken as a protein layer in the cell extract. For the protein layer, the concentrations of proteins were quantified by the Bradford method. 40 μg of the quantified proteins were electrophoresed by SDS-PAGE, and then the separated proteins were transferred to nitrocellulose membranes (Amersham, Buckinghamshire, UK). Then, the membranes were washed three times for 10 minutes using a Tris-buffered saline and Tween 20 solution (TBS-T), followed by blocking using 10% skim milk for 60 minutes. […] Bands visualized on the X-ray film were scanned and quantified using Quantity One analysis software (Bio-Rad).

p-4E-BP1 protein = experiment: as above; format: cell-based, mouse; conditions: ethyl vanillin with dexamethasone vs dexamethasone control
Procedure: as §1

[4] = test system: animal model with high-fat-diet-induced muscle loss; experiment: Grip test in mice fed a high-fat diet; format: in vivo, C57BL/6N mice; conditions: 0.2% ethyl vanillin in high-fat diet, week 10
Procedure: A normal diet group (Chow) was fed commercial rodent chow. Ethyl vanillin was purchased from Sigma-Aldrich. [table] To measure the grip strength of mice, grip strength was measured using four feet of the mice at week 10 of breeding. A force (N) for mice to hold a wire mesh was measured a total of five times using a grip strength measurer equipped with a wire mesh (20×10 cm) (Daejong Instrument Industry Co., Ltd., Korea), and a rest period of 1 minute or longer was given between measurements. Experimental results were obtained by dividing the measured force (N) by body weight (kg). The statistical analysis of all data was performed using the Statistical Package for the Social Sciences (SPSS version 21.0, IBM, Armonk, N.Y., USA), and analysis values were expressed as mean±SEM, and a significant difference between groups was verified by ANOVA.

MuRF1 = experiment: mRNA expression level by RT-PCR in myotubes; format: cell-based, mouse; conditions: ethyl vanillin with dexamethasone vs dexamethasone control
Procedure: (§2) After completing the incubation of all experimental groups and the control, cells of each group were obtained, 334 μl of a TRIzol solution per 1×10^7 myotubes was added and replaced, followed by centrifugation at 12,000×g and 4° C. for 10 minutes. Thereafter, the supernatant was transferred to a new tube and 67 μl of chloroform was added thereto, followed by mixing by vortexing. The supernatant in the mixed solution was transferred again to a new tube, and isopropanol was added thereto in a ratio of 1:1 (v:v) of isopropanol to supernatant, followed by vigorous shaking about 10 times and being left at room temperature for 15 minutes. Once again, centrifugation was carried out at 12,000×g and 4° C. for 10 minutes to remove a supernatant, and 1 ml of 70% ethanol was added to the precipitate, followed by centrifugation at 7,500×g and 4° C. for 5 minutes to remove the ethanol, and the tubes were dried at room temperature for 15 minutes. Finally, precipitated RNA was dissolved in nuclease free water to obtain RNA extracted from the cells. The concentration of RNA was identified by measuring absorbance at wavelengths of 260 nm and 280 nm using a UV/VIS spectrometer, and was subjected to electrophoresis to confirm the integrity of RNA samples.
(§3) Reverse transcription-polymerase chain reaction (RT-PCR) was performed using the prepared RNA samples. The obtained RNA samples were used as templates and reverse transcription was performed using oligo dT primers and SuperScript Reverse Transcriptase (GIBCO BRL, Gaithersburg, Md., USA) to synthesize cDNA. The synthesized cDNA was used as a template and PCR was performed using primer pairs (forward primers and reverse primers) shown in Table 1 below. Each primer was constructed based on the 5′ and 3′ flanking sequence of cDNA of the template gene to be amplified. After PCR was completed, 1 μl of each amplified PCR product was subjected to electrophoresis on agarose gel to confirm generated DNA bands.

MaFbx/atrogin 1 = experiment: mRNA expression level by RT-PCR in myotubes; format: cell-based, mouse; conditions: ethyl vanillin with dexamethasone vs dexamethasone control
Procedure: as §2, §3

Myostatin = experiment: mRNA expression level by RT-PCR in myotubes; format: cell-based, mouse; conditions: ethyl vanillin with dexamethasone vs dexamethasone control
Procedure: as §2, §3

[5] = cited from earlier work

In the case of CCOc1cc(C=O)ccc1O [ethyl vanillin, 3-ethoxy-4-hydroxybenzaldehyde], the “increase in thickness of myotubes compared to reduction caused by dexamethasone” value ([1]; 100 μM ethyl vanillin along with 50 μM dexamethasone, 48 hours, C2C12 myotubes) is reported as 49%, the “number of myotubes of mouse myoblasts reduced by dexamethasone” value ([1]; treated with ethyl vanillin, vs dexamethasone) is reported as “significantly increased” and the “increase in fiber diameter of the tibialis anterior vs high-fat diet” value [2] is reported as 57%. For the same compound, the “increase in holding impulse (hanging time x body weight) vs high-fat diet” value [3] was 147%, the “amount of p-p70S6K1 protein” value (p-p70S6K1 protein) was “significantly increases” and the “amount of p-4E-BP1 protein” value (p-4E-BP1 protein) was “significantly increases”. The “increase in grip strength (force/body weight) vs high-fat diet” value [4] was 27%, the “expression of MuRF1 (mRNA)” value (MuRF1) was “significantly reducing; also recorded: significantly reduces” and the “expression of MaFbx/atrogin 1 (mRNA)” value (MaFbx/atrogin 1) was “significantly reducing; also recorded: significantly reduces”. The “expression of Myostatin (mRNA)” value (Myostatin) was “significantly reducing”, the solubility in chloroform ([5]; chloroform) was “soluble” and the solubility in ethanol ([5]; ethanol) was “soluble”. For the same compound, the solubility in water ([5]; water) was “insoluble”.

Source: patent publication US11576875B2 (priority 2017, dated 2023)
